Source: publication PMC3038857, “Using Nuclear Receptor Activity to Stratify Hepatocarcinogens” (PLoS ONE, 2011)
Read-outs that look alike come from different tables or passages of the source.

Legend:
CYP2B6 = test: CLZD_CYP2B6: Change in expression of CYP2B6 (primary human hepatocytes); assay type: cell-based; settings: 24 hr
Protocol: (§1) This is a collection of multiplexed gene expression assays focused on Phase I and II xenobiotic metabolizing enzymes and transporters. Human primary cell cultures were treated with chemicals at 5 concentrations (0.004-40 [drawing 42] M) for 6, 24 and 48 hr. Concentration- and time-response profiles of chemicals were measured by the expression of key nuclear receptor target genes, activities of CYP1A enzymes (EROD), and cell morphology. Fourteen gene targets were monitored by quantitative nuclease protection assay including: six representative cytochrome P-450 genes, four hepatic transporters, three Phase II conjugating enzymes, and one endogenous metabolism gene involved in cholesterol synthesis. The target genes associated with nuclear receptor pathways are as follows: [drawing 43] and [drawing 44] with [drawing 45]; [drawing 46] , [drawing 47] , [drawing 48] , [drawing 49] , [drawing 50] and [drawing 51] with [drawing 52]; [drawing 53] , [drawing 54] , [drawing 55] and [drawing 56] with [drawing 57]; [drawing 58] with [drawing 59]; and [drawing 60] with [drawing 61] . Assays were run in primary human hepatocyte cultures by CellzDirect Invitrogen Inc. (Durham, NC), in collaboration with EPA.
(§2) Multiplexed Gene Expression in Human Primary Hepatocytes: This is a collection of multiplexed gene expression assays focused on Phase I and II metabolic enzymes and transporters. […] Fourteen gene targets were monitored by quantitative nuclease protection assay: six representative cytochrome P450 genes, four hepatic transporters, three Phase II conjugating enzymes, and one endogenous metabolism gene involved in cholesterol synthesis. Cells were exposed at 5 concentrations (0.004-40 µM) for 6, 24 or 48 hr. Gene targets are sentinels for five nuclear receptor signaling pathways: AhR, CAR, PXR, FXR, and PPARα. All gene are associated with nuclear receptor pathways: CYP1A1 and CYP1A2 with AHR; ABCB1, ABCG2, CYP2B6, CYP2C9, CYP2C19 and UGT1A1 with CAR; CYP3A4, GSTA2, SLCO1B1 and SULT2A1 with PXR; HMGCS2 with PPARA; and ABCB11 with FXR. […] Detailed description of the methods, data and analysis methods for this dataset will be presented in a separate publication.

Rat Liver [1] = settings: ref ToxRefDB, cited from earlier work
Rat Liver [2] = settings: ref ToxRefDB, cited from earlier work; remark: listed apart in the source
CYP3A4 = test: CLZD_CYP3A4: Change in expression of CYP3A4 (primary human hepatocytes); assay type: cell-based; settings: 24 hr
Protocol: as §1, §2

Rat Liver [3] = settings: ref ToxRefDB, cited from earlier work; remark: listed apart in the source
Mouse Liver [4] = settings: chronic study, mouse liver; ref ToxRefDB; cited from earlier work
PXR (NR1I2) [5] = molecular target: T1, PXR (NR1I2) (Homo sapiens, UniProt O75469); test: ATG_PXRE_CIS: Factorial reporter gene assay (HepG2); assay type: cell-based; parameters: endogenous in cells; host or cells: HepG2
T1 sequence (O75469 1-434): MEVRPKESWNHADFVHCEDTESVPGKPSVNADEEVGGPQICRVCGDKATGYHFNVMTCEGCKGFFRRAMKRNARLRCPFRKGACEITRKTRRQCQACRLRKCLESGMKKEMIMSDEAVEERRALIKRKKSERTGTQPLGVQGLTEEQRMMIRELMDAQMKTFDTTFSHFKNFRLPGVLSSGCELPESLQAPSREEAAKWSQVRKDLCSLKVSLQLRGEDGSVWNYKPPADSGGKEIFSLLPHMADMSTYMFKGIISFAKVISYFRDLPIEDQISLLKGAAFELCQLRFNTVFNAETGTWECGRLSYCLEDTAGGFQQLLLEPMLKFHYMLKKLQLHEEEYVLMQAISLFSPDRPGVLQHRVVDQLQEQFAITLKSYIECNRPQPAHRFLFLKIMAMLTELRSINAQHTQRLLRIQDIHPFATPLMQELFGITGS
Protocol: (§3) A multiple reporter transcription unit (MRTU) library consisting of 48 transcription factor binding sites was transfected into the HepG2 human liver hepatoma cell line. In addition to the cis-acting reporter genes (CIS), a modification of the approach was used to generate a trans-system (TRANS) with a mammalian one-hybrid assay consisting of an additional 25 MRTU library reporting the activity of nuclear receptor super-family members. […] These assays were performed by Attagene Inc. (Morrisville NC) under contract to EPA.
(§4) In addition to the cis-acting reporter genes (CIS), a modification of the approach was used to generate a trans-system (TRANS) with a mammalian one-hybrid assay consisting of an additional 25 MRTU library reporting the activity of nuclear receptor super-family members. […] Chemicals were then tested in the CIS and TRANS assays at seven concentrations starting at the MTC and followed by three-fold serial dilutions. These assays were performed by Attagene Inc. (Morrisville NC) under contract to EPA. Detailed description of the methods, data and analysis methods for this dataset will be presented in a separate publication.

PXR (NR1I2) [6] = molecular target: T1, PXR (NR1I2); test: NVS_NR_hPXR: Human PXR Fluormone PXR (SXR) green (cell-free HTS); assay type: binding
From the text: These are a collection of biochemical assays measuring binding constants and enzyme inhibition values. Chemicals were initially screened at a single concentration in duplicate wells at a concentration of 10 [drawing 63] M for cytochrome P-450 assays and 25 [drawing 64] M for all others. […] These assays were run by Caliper Life Sciences (Hanover, MD) under contract to EPA. Short assay descriptions are available at: http://www.caliperls.com/products/contract-research/in-vitro/.
Cell-free HTS Assays: A collection of biochemical assays measuring binding constants and enzyme inhibition values. […] These assays were run by Caliper Life Sciences (Hanover, MD) under contract to EPA. Short assay descriptions are available at http://www.caliperls.com/products/contract-research/in-vitro/. Values for all endpoints were imported into GeneData Screener (Basel, Switzerland) and normalised to solvent controls from the same plate as the tested compounds and expressed as percent of neutral control. Concentration-response curves were fit in GeneData Screener (Basel, Switzerland) Condeseo module using the Hill equation and AC50 values were determined. […] Detailed description of the methods, data and analysis methods for this dataset are described in a separate publication.

[7] = molecular target: T2, PPARG (peroxisome proliferator-activated receptor gamma) (Homo sapiens, UniProt P37231); test: ATG_PPARg_TRANS: Factorial reporter gene assay (HepG2); assay type: cell-based
T2 construct: expressed in transfected cells; host or cells: HepG2
T2 sequence (P37231 1-505): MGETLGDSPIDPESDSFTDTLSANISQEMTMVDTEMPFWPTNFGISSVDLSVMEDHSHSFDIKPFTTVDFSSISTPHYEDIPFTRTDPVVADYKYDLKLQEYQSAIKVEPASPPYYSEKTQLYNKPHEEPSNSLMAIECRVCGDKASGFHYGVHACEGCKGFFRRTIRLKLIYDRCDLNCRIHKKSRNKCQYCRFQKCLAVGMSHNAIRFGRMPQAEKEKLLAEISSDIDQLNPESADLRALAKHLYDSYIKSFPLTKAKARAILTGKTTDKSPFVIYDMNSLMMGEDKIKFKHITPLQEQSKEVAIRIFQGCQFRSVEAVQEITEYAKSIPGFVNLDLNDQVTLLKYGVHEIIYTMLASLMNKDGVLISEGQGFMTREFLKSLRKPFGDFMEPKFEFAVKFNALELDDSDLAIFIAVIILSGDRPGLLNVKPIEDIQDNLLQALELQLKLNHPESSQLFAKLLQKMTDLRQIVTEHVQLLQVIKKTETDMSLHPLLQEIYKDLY
Protocol: as §3, §4

Mouse Liver [8] = settings: chronic study, mouse liver; ref ToxRefDB; cited from earlier work; remark: listed apart in the source
PXR (NR1I2) [9] = molecular target: T1, PXR (NR1I2); test: ATG_PXR_TRANS: Factorial reporter gene assay (HepG2); assay type: cell-based; parameters: endogenous in cells; host or cells: HepG2
Protocol: as §3, §4

| Structure (SMILES) | CLZD_CYP2B6_24 (CYP2B6) | CHR_Rat_Liver_3_NeoplasticLesion (Rat Liver [1]; chronic study, rat liver) | CHR_Rat_Liver_1_AnyLesion (Rat Liver [2]; chronic study, rat liver) | CLZD_CYP3A4_24 (CYP3A4) | CHR_Rat_Liver_2_PreneoplasticLesion (Rat Liver [3]; chronic study, rat liver) | CHR_Mouse_Liver_1_AnyLesion (Mouse Liver [4]) | ATG_PXRE_CIS (PXR (NR1I2) [5]; HepG2 reporter) | ATG_PXRE_CIS (PXR (NR1I2) [5]; HepG2) | further results |
| --- | --- | --- | --- | --- | --- | --- | --- | --- | --- |
| COc1nc(C)nc(NC(=O)NS(=O)(=O)c2ccccc2CCC(F)(F)F)n1 [r266] | 5.694 | 0 | 0 | 5.037 | 0 | 6 | 4.377 |  |  |
| COc1nc(C)nc(NC(=O)NS(=O)(=O)c2ccccc2CCC(F)(F)F)n1 [r268] |  | 0 | 0 |  | 0 | 6 | 4.509 |  | NVS_NR_hPXR (PXR (NR1I2) [6]): 4.469 |
| CC(COc1ccc(Oc2ccccc2)cc1)Oc1ccccn1 (centres unmarked) [r274] | 5.377 | 0 | 0 | 5.096 | 0 |  | 4.886 |  | ATG_PPARg_TRANS ([7]; HepG2 reporter): 4.42 |
| CCC/C(=N\OCC)C1=C(O)CC(CC(C)SCC)CC1=O (centres unmarked) [r283] | 5.082 | 0 | 6 | 4.556 | 6 | 6 | 4.62 |  | CHR_Mouse_Liver_2_PreneoplasticLesion (Mouse Liver [8]): 6 |
| Cc1nn(-c2cc(NS(C)(=O)=O)c(Cl)cc2Cl)c(=O)n1C(F)F [r287] | 5.329 | 0 | 0 | 5.471 | 0 | 6 | 4.409 |  | ATG_PXR_TRANS (PXR (NR1I2) [9]; HepG2 reporter): 4.469; ATG_PPARg_TRANS ([7]; HepG2 reporter): 4.444 |
| N#CSCSC#N [row 206] | 5.076 |  |  |  |  |  |  | 5.699 | NVS_NR_hPXR (PXR (NR1I2) [6]): 5.324 |
| CCSC(=O)N1CCCCCC1 [row 214] |  |  |  |  |  |  |  | 4.602 | CHR_Rat_Liver_3_NeoplasticLesion (Rat Liver [1]; chronic rat study, liver): 0; ATG_PXR_TRANS (PXR (NR1I2) [9]; HepG2): 4.208; CHR_Rat_Liver_1_AnyLesion (Rat Liver [2]; chronic rat study, liver): 0; CHR_Rat_Liver_2_PreneoplasticLesion (Rat Liver [3]; chronic rat study, liver): 0 |
| O=C(Nc1ccc([N+](=O)[O-])cc1Cl)c1cc(Cl)ccc1O [row 220] |  |  |  |  |  |  |  | 6.367 | ATG_PPARg_TRANS ([7]; HepG2): 6.252 |
